From paper PMC10447463, “Data-mining unveils structure–property–activity correlation of viral infectivity enhancing self-assembling peptides” (Nature Communications, 2023)

Assays:
[1] = system: HIV-1 infection of TZM-bl cells; assay: HIV-1 infectivity enhancement assay, β-galactosidase luminescence; type: cell-based; conditions: for Log10 Inf. rel. to EF-C: log10 of HIV-1 infection of TZM-bl cells relative to EF-C, Fig S15 source data, asymmetric std dev errors
[2] = Zeta-potential measurement; type: physicochemical; set-up: Zeta-Potential: unit not given here; conditions: for Zeta-pot. / mV: zeta potential of peptide, Fig S15 source data
Description: (§1) 4 µL of 1 mg/mL peptide fibrils solution is added to a 20 µL, 50 µM ThT–solution in PBS. The mixture is incubated for 15 min at RT to allow binding of ThT dye with β–sheet rich structures. For reference PBS (4 µL) was added instead of peptide fibril solution. The samples were placed in black UV Star® 384 microliter well–plates (Greiner bio–one). Fluorescence spectra were recorded on an Infinite® M1000 PRO microplate reader (Tecan) at λem = 488 nm upon excitation at λex = 440 nm with 10 nm bandwidths and multiple reads per well (3×3). Measurements were repeated in triplicates and averaged with standard deviation. […] Zeta-Potential. For the determination of the surface charge of aggregated peptides zeta-potential measurements were conducted with a Zetasizer Nano ZS, Malvern Instruments. Unless stated otherwise the peptides were dissolved from DMSO (10 mg/mL) in PBS (pH 7.4) to concentration of 1 mg/mL and incubated for 1d at RT. Just before the measurement the 60 µL of the peptides were further diluted in 600 µL KCl (aq, 1 mM) in a 1 mL disposable folded capillary cells (DTS–1060, Zetasizer Nano series, Malvern). The zeta potential of the peptides was derived from the electrophoretic mobility based on the Smoluchowski formula. All measurements were averaged over two individually performed experiments and conducted in triplicates for each sample. Aggregate analysis. […] Furthermore, fluorescence microscopy was conducted by staining 1 µL preformed fibrils (1 mg/mL) with 9 µL ThT (50 µM). Brightfield microscopy was performed simultaneously to evaluate aggregation also for non ThT-active fibrils. The measurements were performed on a Leica DMi8 microscope with 10x air objective and equipped with a Leica MC170 HD camera with a filter setting λem = 527/30 nm upon excitation at λex = 480/40 nm) and processed with the Leica LASX software. To quantify size and number of microscopic aggregation of particles > 10 µm^2 at least 3 independently measured images were analyzed via the 3D object counter analysis tool of ImageJ, v 1.53f51. Sum–frequency generation. The SFG experiments were carried out with a femtosecond Ti: Sapphire amplified laser system (Spitfire Ace, Spectra–Physics, 800 nm, 40 fs, 1 kHz) with 5 W output power. We used 2 W to pump an optical parametric amplifier (TOPAS, light conversion) with a non–collinear difference frequency generation stage to generate broadband IR pulses. Another 1 W of the laser output passed through an etalon to generate narrowband visible pulses (10 cm^-1). The incident angles of the visible and IR beams were 36° and 41° with respect to the surface normal, respectively. The visible (13 µJ) and IR (5 µJ) pulses were overlapped spatially and temporally at the sample position. Subsequently, the generated SFG pulse was guided into a spectrograph (Acton SP 300i, Princeton Instruments), and detected with an EMCCD (Newton, Andor Technology). To avoid IR absorption of water vapor, we purged N2 for the measurement. All spectra were collected in the ssp (denoting s-, s- and p-polarized SFG, visible and IR, respectively) polarization combination. The spectra were normalized to the non–resonant signal taken from z–cut quartz after subtracting a background spectrum. […]

[3] = Turbidity, derived count rate of scattered light; type: physicochemical; conditions: derived count rate of scattered light
Description: as §1
ways to determine turbidity of samples, this can be via transmittance and via scattering. Transmittance […]
as it is an easy and fast method.10,11 However, transmittance contributes not only from µm-sized aggregates but also nm-sized aggregates such as distinct fibrils, which makes hard to distinguish between fibril formation and micrometer sized aggregation. Although dynamic light scattering is a frequently applied method for determination of particle size, it cannot be conducted in solutions with anisotropic aggregates in micrometer size range, since the Stokes-Einstein relation is only applicable for homogeneous […] spherical particles.12 Further models describing scattering intensity and […]

[4] = infectivity class (low / medium / high) of each library peptide, main list in c1-c6, same classes repeated in sub-lists of sequences containing the hydrophobicity/charge patterns P+,H0,P+,H0,P0,H0,P0, P+,H0,P0,H0,P0,H0,P0, P+,H0,P0,H0
[5] = infectivity class (low / medium / high) of the peptide in the sequence-pattern analysis, Fig. S22-A4, class limits not given

| Substance | infectivity [1, 4] | Log10 Inf. rel. to EF-C [1] | Zeta-pot. / mV [2] | also measured |
| --- | --- | --- | --- | --- |
| KYKGAIIGNIK [CN19] | low | -2.508 | -9.14 mV |  |
| HGDKCHGDKC [CN2] | low | -1.991 | -11.63 mV |  |
| KIEIQINM [NM6] |  | -1.458 | -0.35 mV | infectivity [1, 5]: low |
| EIEIEIEI [JR12] | low | -1.748 | -8.92 mV |  |
| IKVAVKIKIQINM [TM74] | medium | -0.3046 | 14.5 mV |  |
| CKFQC [CN31] | low | -1.643 | -17.38 mV |  |
| CKIKQIIRGD [psis22] |  | -1.311 | 13.2 mV | infectivity [1, 5]: low |
| EIKIQINM [TM73] | low | -1.001 | -22.33 mV | infectivity [1, 5]: low |
| HRRHFRHKITKKK [CN29] | low | -1.868 | -9.223 mV |  |
| RPRGLLLGNLR [CN20] | low | -1.3163 | -8.15 mV |  |
| KFKFEFEF [MGe01] |  | -1.547 | -2.55 mV | infectivity [1, 5]: low |
| TKTLTKTL [CN25] | low | -1.671 | -25.1 mV |  |
| KVKGVGK [CN27] | low | -1.587 | -12.8 mV |  |
| KNDKND [CN5] | low | -1.978 | -15 mV |  |
| RGDKIRGDKI [CN4] | low | -2.126 | -13.57 mV |  |
| FDPFDPFDP [CN24] | low | -1.6317 | -10.9 mV |  |
| HGEHGE [CN6] | low | -2.193 | -12.6 mV |  |

| Substance | infectivity [1, 4] | Log10 Inf. rel. to EF-C [1] | Zeta-pot. / mV [2] | also measured |
| --- | --- | --- | --- | --- |
| CKFC [CN33] | low | -1.959 | -19.89 mV |  |
| ILKNLSRSRKIKIQIC [TM116] | medium | -0.4741 | 18 mV |  |
| FKFDKFKFDK [CN26] | low | -1.334 | -12.7 mV |  |
| HHHHEIEIEIEI [JR9] | low | -1.534 | -6.91 mV |  |
| PPFHPPPFHP [CN22] | low | -1.751 | -15.8 mV |  |
| MKFM [CN32] | low | -1.756 | -16 mV |  |
| Lysozyme |  |  |  | Zeta Potential ([2]; mean of n = 3): 4.807; Zeta-Potential ([2]; replicate 1): 4.05; Zeta-Potential ([2]; replicate 2): 5.03; Zeta-Potential ([2]; replicate 3): 5.34; Count Rate ([3]; mean of n = 3): 217.9 kcps; Count Rate ([3]; replicate 1): 304.4 kcps; Count Rate ([3]; replicate 2): 195.7 kcps; Count Rate ([3]; replicate 3): 153.6 kcps |
| EFEFQF [KB11] | low | -2.485 | -24.5 mV |  |
| KKFQKKFQ [CN21] | low | -1.545 | -9.19 mV |  |
| KNERIKNERI [CN3] | low | -1.888 | -16 mV |  |
| SISISRRI [CN28] | low | -1.548 | -17 mV |  |
| MDQMDQMDQMDQMDQ [CN23] | low | -2.37 | -14.98 mV |  |
| KIRGKFEKED [CN30] | low | -1.2355 | -12.7 mV |  |
| NMWQKVGTPL [JG7] | low | -1.607 | -9.62 mV |  |
| CETMYDKILKNLSRSR [CR16] | low | -1.716 | 0.41 mV |  |
| HGEHGEHGE [CN7] | low | -1.72 | -24.2 mV |  |
